Test results: article PMC10545747, “Development of cyclopeptide inhibitors of cGAS targeting protein-DNA interaction and phase separation” (Nature Communications, 2023)
“And” between values parts separate entries of the source, which are not always exact repeats. Equal values may be shown once. Square brackets hold non-standard residues; d marks the D form. Peptide text beside a SMILES is read from it.

Assays:
[1] = target: T1, recombinant human cGAS enzyme (hcGAS-ΔN, residues 147–522) (Homo sapiens, UniProt Q8N884); experiment: RNA-based fluorescent biosensor assay of cGAS activity (2',3'-cGAMP formation), in vitro screening; format: biochemical; conditions: for Remaining activity (%), Fig. 1a source data / remaining activity at 20 µM: 20 μM, replicate values; for remaining activity at 20 µM: read-out: Remaining activity (%), Fig. 1a source data; for Inhibition % / inhibition at 20 µM: peptides screened at 20 μM, Supplementary Table 1 / Fig. S5b; for Inhibition %: 20 µM; for inhibition at 20 µM: read-out: Inhibition %
T1 construct: N-terminally truncated human cGAS (hcGAS-ΔN, residues 147–522); 6xHis-SUMO (N, cleaved yes); made in house; host or cells: Escherichia coli BL21 (DE3)
T1 sequence (Q8N884 147-522, stated change not applied): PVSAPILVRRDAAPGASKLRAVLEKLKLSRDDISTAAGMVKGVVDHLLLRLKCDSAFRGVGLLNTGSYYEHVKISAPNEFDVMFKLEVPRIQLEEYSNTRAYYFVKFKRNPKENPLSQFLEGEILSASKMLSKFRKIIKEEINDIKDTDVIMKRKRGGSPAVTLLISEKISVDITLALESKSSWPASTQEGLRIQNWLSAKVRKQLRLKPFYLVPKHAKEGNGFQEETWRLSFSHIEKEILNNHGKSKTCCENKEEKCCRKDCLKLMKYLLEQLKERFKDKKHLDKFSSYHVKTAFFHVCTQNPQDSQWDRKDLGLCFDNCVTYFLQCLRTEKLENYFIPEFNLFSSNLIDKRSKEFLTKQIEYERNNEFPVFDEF
Summary of the method: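 In 40 mM Tris-HCl pH 7.5, 100 mM NaCl, 10 mM MgCl2, ISD (0.5 μM) started the reaction with hcGAS-ΔN (1.5 μM), ATP (1 mM) and GTP (1 mM). Incubation was 2 h at 37 °C, with compounds screened at 20 μM. 2',3'-cGAMP formed was quantified with an RNA-based fluorescent biosensor.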

[2] = tested on: dsDNA-stimulated THP1 cells; experiment: qPCR of IFNB1/CXCL10/IL6 mRNA in THP1 cells stimulated by dsDNA (ISD, HSV60mer); format: cell-based, human; conditions: THP1, dsDNA 6 h; hits 10 μM; replicate values
Excerpt: (§1) To screen direct cGAS inhibitors targeting protein-DNA interface from our developed focused library of macrocyclic peptides, we applied an RNA-based fluorescent biosensor for 2’,3’-cGAMP to detect cGAS activity in vitro (Supplementary Fig. 1a)[49]. The formation of 2’,3’-cGAMP from ATP and GTP was catalyzed by recombinant human cGAS enzyme (hcGAS-ΔN, residues 147–522, Supplementary Fig. 1b) in the presence of ISD (interferon stimulatory DNA, a 45-bp dsDNA), which was readily quantified by the RNA-based fluorescent biosensor and was further confirmed by ion exchange chromatography (Supplementary Fig. 1c). […] Subsequently, a total of 90 macrocyclic peptides were screened at a concentration of 20 μM (Fig. 1a and Supplementary Fig. 1e), and 4 hits (XQ2, XQ8, XQ19, and XQ46) were obtained for further testing at a cut-off of 40% inhibition (Supplementary Table 1). To evaluate the inhibitory effect of the hits against cGAS in cells, we employed real-time quantitative PCR (qPCR) to examine mRNA levels of IFNΒ1 in THP1 cells. The reported cGAS inhibitor RU.521 was used as the positive control, and the non-active peptide XQ28 in the screening assay was used as the negative control. […] The inhibition of cGAS by these hits was further confirmed in the reporter cell line THP1-Lucia ISG (Invivogen) that expresses secreted luciferase induced by an IRF3-inducible ISG54 promoter (Fig. 1c). The discrepancy between the inhibitory effect of the hits in protein and cellular assays may be attributed to their different cellular permeability.
The indicated cells were stimulated with either ISD (Sangon Biotech), HSV-1 (Provided by Dr. Zhengfan Jiang), HSV60mer (Sangon Biotech), SATE-cddA[70], 2’3’-cGAMP (Invivogen, Cat# tlrl-nacga23-1), ADU-S100 (MedChemExpress, Cat# HY-12885A) or Poly(I:C) (Invivogen, Cat# tlrl-pic) after XQ2 or XQ2B treatment. Total RNA was isolated from indicated cells that incubated with the drugs for indicated time or mice tissues by using NucleoZOL reagent (MACHEREY-NAGEL) according to the manufacturer’s instructions. The quantifications of mRNA levels were carried out by real-time PCR using a PerfectStart® Uni RT&qPCR Kit (TransGen Biotech) on the QuantStudio 5 qPCR machine (Applied Biosystems). Samples were carried out in triplicate and the target CT values were normalized to GAPDH CT values. Primers of qPCR used in this study can be found in Supplementary Table S2.

THP1-Lucia ISG cells = experiment: Luciferase reporter assay, dsDNA stimulation; format: cell-based, human; set-up: Type I interferon response, luciferase activity, Fig. 1c / luciferase activity, Fig. 2a: scale not given here; conditions: dsDNA 24 h; replicate values
Excerpt: as §1
THP1-Lucia ISG cells (Invivogen) were seeded into a 96-well plate and incubated with RU.521 (Invivogen) or XQ2 for the indicated time, and then transfected with dsDNA by lipofectamine 2000 (Invitrogen) or infected by HSV-1 with the indicated titer for 24 h. The supernatant was collected and 50 μL QUANTI-Luc Luciferase reagent (Invivogen) was added to 20 μL supernatants per well, and luciferase luminescence was detected by a microplate reader (BioTek Synergy H1) immediately.

Remaining activity (%), Fig. 1a source data [1]	remaining activity at 20 µM [1] [%]	Inhibition % [1] [%]	inhibition at 20 µM [1] [%]	SMILES	IFNB1 mRNA, qPCR, Fig. 1b [2]	Type I interferon response, luciferase activity, Fig. 1c (THP1-Lucia ISG cells)	cGAS activity in the biosensor assay [1]
39.7338% and 39.7351%	40.1	≥ 40	60	CC(C)C[C@@H]1NC(=O)[C@H](CCCNC(=N)N)NC(=O)[C@H](C(C)C)NC(=O)[C@@H]2CCCN2C(=O)[C@@H](Cc2ccccc2)NC(=O)[C@H](C)NC(=O)[C@H](CCCNC(=N)N)NC(=O)[C@H](C(C)C)NC(=O)[C@H](C)NC(=O)[C@@H](Cc2ccccc2)NC1=O [XQ19, Cyclo (AfPVRLfAVR)] (cyclo(AVRA[dF]PVRL[dF]))	69.3649 and 64.1779 and 70.7063	0.9185 and 0.6328 and 0.8726	–
109.037% and 108.058%	107	–	0	N=C(N)NCCC[C@@H]1NC(=O)[C@@H]2CCCN2C(=O)[C@H](Cc2ccccc2)NC(=O)[C@H](CCCNC(=N)N)NC(=O)[C@@H]2CCCN2C(=O)[C@H](Cc2ccccc2)NC1=O [XQ28, Cyclo (RFPRFP)] (cyclo(FPRFPR))	80.7818 and 80.352 and 88.8517	1.441 and 0.666 and 1.434	non-active
48.5808% and 47.6977%	48.8	≥ 40	52	CC(C)C[C@@H]1NC(=O)[C@H](CCCNC(=N)N)NC(=O)[C@H](C(C)C)NC(=O)[C@H](C)NC(=O)[C@@H](Cc2ccccc2)NC(=O)[C@H](CC(C)C)NC(=O)[C@H](CCCNC(=N)N)NC(=O)[C@H](C(C)C)NC(=O)[C@H](C)NC(=O)[C@@H](Cc2ccccc2)NC1=O [XQ8, Cyclo (LfAVRLfAVR)] (cyclo(AVRL[dF]AVRL[dF]))	50.5074 and 61.5926 and 57.7936	1.122 and 0.7764 and 0.491	–
43.44% and 43.4055%	43.8	≥ 40	56	CC(C)C[C@@H]1NC(=O)[C@H](CC(C)C)NC(=O)[C@H](C(C)C)NC(=O)[C@@H]2CCCN2C(=O)[C@@H](Cc2ccccc2)NC(=O)[C@H](C)NC(=O)[C@H](CCCNC(=N)N)NC(=O)[C@H](C(C)C)NC(=O)[C@@H]2CCCN2C(=O)[C@@H](Cc2ccccc2)NC1=O [XQ46, Cyclo (AfPVLLfPVR)] (cyclo(A[dF]PVLL[dF]PVR))	39.5997 and 41.1038 and 45.9315	0.8903 and 0.5111 and 0.5713	comparable inhibitory activity as that of XQ2, XQ8 and XQ19
